Source: US20100104534A1, “HYDRAZIDO-PEPTIDES AS INHIBITORS OF HCV NS3-PROTEASE” (priority 2007, published 2010)

Test system: replicon
Assay: Replicon assay
Type: cell-based

Q: For CCCN(NC(=O)[C@@H]1[C@@H]2[C@H](CN1C(=O)[C@@H](NC(=O)NC1(CS(=O)(=O)C(C)(C)C)CCCCC1)C1(C)CCCCC1)C2(C)C)C(=O)N[C@@H](C)c1ccccc1 [Compound 1], which IC50 is on record?
A: Its IC50 is 0.5 to 3 µM.

Q: Which IC50 does the source give for CCCN(NC(=O)[C@@H]1[C@@H]2[C@H](CN1C(=O)[C@@H](NC(=O)N[C@H](CN(C)S(C)(=O)=O)C(C)(C)C)C(C)(C)C)C2(C)C)C(=O)N[C@@H](C)c1ccccc1 [Compound 2] here?
A: Its IC50 is no more than 0.5 µM.

Q: CCCN(NC(=O)[C@@H]1[C@@H]2[C@H](CN1C(=O)[C@@H](NC(=O)N[C@H](CN1C(=O)CC(C)(C)CC1=O)C(C)(C)C)C(C)(C)C)C2(C)C)C(=O)N[C@@H](C)c1ccccc1 [Compound 3] was tested. Which IC50 did it give?
A: Its IC50 is no more than 0.5 µM.

Q: With CCCN(NC(=O)[C@@H]1[C@@H]2[C@H](CN1C(=O)[C@@H](NC(=O)N[C@H](CN1C(=O)C3CCC(C3)C1=O)C(C)(C)C)C(C)(C)C)C2(C)C)C(=O)N[C@@H](C)c1ccccc1 [Compound 5] as the molecule, how does the IC50 read?
A: Its IC50 is no more than 0.5 µM.

Q: C[C@H](NC(=O)N(CC1CC1)NC(=O)[C@@H]1[C@@H]2[C@H](CN1C(=O)[C@@H](NC(=O)N[C@H](CN1C(=O)C3CCC(C3)C1=O)C(C)(C)C)C(C)(C)C)C2(C)C)c1ccccc1 [Compound 6] was tested. Which IC50 did it give?
A: The IC50 was 0.5 to 3 µM.
